Source: US12285428B2 (IMBRIA PHARMACEUTICALS, INC., priority 2021, dated 2025)
Read-outs that look alike come from different tables or passages of the source. Values belong to the compound of their own block, whether it stands above or below them.

How the values were obtained:
clinical [1] = conditions: in vivo, po
Protocol: Before dosing (on Days 1, 4, 7, and 10 in the single-dose MR part), subjects fasted overnight for at least 10 hours following a light supper on the evening before. Following dosing, subjects fasted for 4 hours until lunch. During fasting, fluids other than water were not allowed; however, water was not allowed from 2 hours predose until 1 hour postdose (apart from the water taken with the dose).
The AUCs were calculated using the linear up/log down trapezoidal rule, expressed in units of concentration×time.
Subjects with R2 below 0.80 or % AUCextra>20% were not excluded from the dose-proportionality evaluation based on AUC0-inf. A point estimate and 95% CI were produced for the slope. […] Since there were only 2 dose levels in the MAD part, no dose-proportionality analysis was performed for the MAD part.

[2] = FIH study, FE arm of SAD part: effect of food on plasma PK (150 mg IMB-1018972); conditions: human, in vivo
Protocol: Subjects assigned to Group A4 also participated in the FE arm and received the same single dose of IMB-1018972 or placebo under fed conditions (Food and Drug Administration [FDA]-defined high-fat breakfast after an overnight fast of at least 10 hours) in a second period at least 1 week after drug administration under fasted conditions in the SAD part.
Then, subjects received an FDA-defined high-fat breakfast that had to be consumed within 20 minutes. The entire breakfast had to be consumed by the subjects. […] Following dosing, subjects fasted for 4 hours until lunch. During fasting, fluids other than water were not allowed.
For the second period of Group A4 in the FE arm, and for Day 13 of the single-dose MR part, the FDA-defined high-fat breakfast of 918 kcal consisted of: • 2 fried eggs (in 15 g butter/margarine) (approximately 100 g) • 1 portion of bacon (40 g) (or brie 60+ for vegetarians) • 1 portion of fried potatoes (115 g) • 2 slices of (toasted) (wheat) bread (approximately 70 g) with 15 g margarine • 1 glass of whole milk (240 mL) The total of 918 kcal (vegetarian version 915 kcal) could be broken down as follows: • 39 g protein=156 kcal • 59 g fat=527 kcal • 59 g carbohydrates=235 kcal Blinding

[3] = human, in vivo
Protocol: Subjects received multiple oral doses of an IR formulation of IMB-1018972 or placebo once every 12 hours (q12h) for 14 consecutive days.
The doses were selected based upon the safety, tolerability, and PK data from the SAD part: • Group B1 multiple oral doses of an IR formulation of 150 mg IMB-1018972 (n=9) or matching placebo (n=3) twice daily (q12h) for 14 days; on Day 14 only a single morning dose was administered • Group B2: multiple oral doses of an IR formulation of 50 mg IMB-1018972 (n=9) or matching placebo (n=3) q12h for 14 days; on Day 14 only a single morning dose was administered
Before each morning dose, subjects fasted overnight for at least 10 hours following a snack on the evening before. On Days 1 and 14, subjects received a standardized breakfast that had to be consumed within 20 minutes. Dosing occurred at 30 minutes after the start of breakfast. Following dosing, subjects fasted for 4 hours until lunch. During fasting, fluids other than water were not allowed. On Days 2 to 13, breakfast was not standardized and was given within maximally 1 hour before dosing and consumed before dosing. No fasting after dosing was applicable on these days.
On all dosing days, an evening snack was given within maximally 1 hour before dosing and consumed before dosing.

[4] = human, in vivo, 200 mg
Protocol: On Day 13, subjects received a FDA-defined high-fat breakfast that had to be consumed within 20 minutes. […] Following dosing, subjects fasted for 4 hours until lunch. During fasting, fluids other than water were not allowed. Subjects were not allowed to lie down for 4 hours after dosing, except when required for assessments that needed to be performed.

[5] = human, in vivo; remark: listed apart in the source
[6] = human, in vivo, po
clinical [7] = conditions: human, in vivo, po
[8] = FIH study, SAD part: PK in urine

Time at which detectable plasma concentrations were generally seen (clinical [1]; human): 15 to 30 min | Tmax (clinical [1]; human): ~1 h | half-life (clinical [1]; human): 2.6 to 3 h | Tmax (clinical [1]; human, 50 mg): 0.5 to 1.02 h | Fashion of elimination (clinical [1]): biphasic | Cmax lower after high-fat breakfast relative to fasted conditions [2]: approximately 36% | Effect of food on AUC0-inf: estimate (fed relative to fasted) [2]: 1.12 | Effect of food on AUC0-t: estimate (fed relative to fasted) [2]: 1.12 | Effect of food on Cmax: estimate (fed relative to fasted) [2]: 0.64 | Tmax ([2]; Median tmax): 1 h | Geometric mean Cmax higher on Day 1 after 150 mg fed in the MAD part than after single 150 mg fed in the SAD part [3]: 97% | Cmax higher after high-fat breakfast relative to fasted conditions [4]: approximately 42% | Effect of food on AUC0-inf: estimate (fed relative to fasted) [4]: 1.16 | Effect of food on AUC0-t: estimate (fed relative to fasted) [4]: 1.16 | Effect of food on Cmax: estimate (fed relative to fasted) [4]: 1.42 | Primary clearance mechanism [5]: metabolism | AUC0-t higher after the 8-hour MR formulation than after the 4-hour MR formulation [6]: 6% | AUC0-t lower after the 8-hour MR formulation than after the 4-hour MR formulation [6]: 26% | CL renal (clinical [7]): 62.7 to 89.5 mL/min
Compound: COc1ccc(CN2CCN(CCO)CC2)c(OC)c1OC [IMB-1028814, 2-[4-[(2,3,4-trimethoxyphenyl)methyl]piperazin-1-yl]ethanol]

Time at which detectable plasma concentrations were generally seen (clinical [1]; human): 15 to 30 min | Geometric mean Cmax lower on Day 1 after 150 mg fed in the MAD part than after single 150 mg fed in the SAD part [3]: 32% | AUC0-t higher after the 8-hour MR formulation than after the 4-hour MR formulation [6]: 4% | AUC0-t lower after the 8-hour MR formulation than after the 4-hour MR formulation [6]: 12% | Primary clearance mechanism ([8]; concluded from urinary excretion): renal excretion | Renal handling (CLR greater than glomerular filtration rate, 7.5 L/h) ([8]; in vivo): net tubular secretion | Arithmetic mean percent of the dose excreted in urine as trimetazidine ([8]; within 48 hours after single oral 35 mg trimetazidine): 54.47%
Compound: COc1ccc(CN2CCNCC2)c(OC)c1OC [trimetazidine, reference compound]
